Data: patent US6780883B2, “Amide inhibitors of microsomal triglyceride transfer protein” (Warner-Lambert Company, priority 1998, dated 2004)

Assays:
[1] = biological target: apolipoprotein(a), [apo(a)], apolipoproteinB-100, [apoB-100], coupling reaction that generates Lp(a) (Homo sapiens, UniProt P04114+P08519); experiment: LPABC screen: lipoprotein(a) biochemical coupling assay, Lp(a) content by ELISA; conditions: recombinant apo(a) 17-kringle (293 cell media) + HepG2 conditioned media, 67 minutes, 37° C., 0.3 to 50 μM compound; read-out: Lp ABC IC50
Method: LPABC Screen The lipoprotein(a), [Lp(a)], biochemical coupling assay (LPABC) is used to characterize inhibitors of the apolipoprotein(a), [apo(a)], apolipoproteinB-100, [apoB-100], coupling reaction that generates Lp(a). Conditioned media from 293 cells (ATCC CRL-1573), permanently transfected with an apo(a) 17-kringle cDNA expression construct (pcDNA-AMP, In Vitrogen, Carlsbad, Calif.) using standard molecular biology techniques, was used as a source of recombinant apo(a) is diluted 1:3 with phosphate buffered saline (PBS) and 90 μL is pipetted into each well of a 96-well plate and placed into a 37° C. incubator for 10 minutes. Twenty microliters of a 0.3 to 50 μM solution of a compound of the present invention in PBS is added to the warmed plate. Ninety microliters of HepG2 (ATCC HB-8065) cell conditioned media diluted 1:3 with PBS is added to the apo(a)/compound mixture and mixed by pipetting up and down 5 times. The reaction is incubated for 67 minutes in a 37° C. incubator. A 100 μL aliquot of the reaction is removed and assayed for its Lp(a) content by an enzyme linked immunosorbent assay (ELISA).

[2] = system: Lp(a) production in HepG2^K17 cells; experiment: LPA3 screen: inhibition of Lp(a) production in transfected HepG2 cells, Lp(a) in media by ELISA; format: cell-based; conditions: Homo sapiens, 8 hours, 0.3 to 50 μM compound, Lp(a) normalized for total protein, read-out: Lp A3 IC50
Method: The LPA3 screen is used to identify compounds that inhibit Lp(a) production. This screen employs permanently transfected HepG2 cells (HepG2^K17) that are generated using an apo(a) 17-kringle cDNA expression construct (pcDNA-AMP, In Vitrogen, Carlsbad, Calif.) in accordance with methods that are well-known in molecular biology.
HepG2^K17 cells are seeded in 96-well plates at a density of 75,000 cells per well in 0.25 mL of Dulbecco's Modified Eagle Media (DMEM) containing 10% fetal bovine serum (FBS). Seeded plates are incubated overnight in a 37° C., 5% CO2/95% 02 incubator. The media is removed, replaced with (1) fresh media, or (2) fresh media plus 0.3 to 50 μM of a compound of the present invention in 20 μL of PBS, and the plates returned to the incubator for 8 hours. After the additional 8 hours of incubation, Lp(a) is assayed in the media by ELISA. Cells are digested with 0.5N NaOH overnight and assayed for total protein. Lp(a) values are normalized for total protein content.

| SMILES | IC50 [1] [µM] | IC50 [2] [µM] |
| --- | --- | --- |
| COc1ccc(N(Cc2ccccc2-c2ccccc2)C(=O)c2ccc(OC)cc2OC)cc1 [Example 106, N-Biphenyl-2-ylmethyl-2,4-dimethoxy-N-(4-methoxy-phenyl)-benzamide] | > 50 | 9.3 |
| COc1ccc(N(Cc2ccccc2-c2ccccc2)C(=O)c2ccccc2OCc2ccccc2)cc1 [Example 107, 2-Benzyloxy-N-biphenyl-2-ylmethyl-N-(4-methoxy-phenyl)-benzamide] | > 50 | 15.4 |
| COc1ccc(N(Cc2ccccc2-c2ccccc2)C(=O)c2ccccc2Br)cc1 [Example 108, N-Biphenyl-2-ylmethyl-2-bromo-N-(4-methoxy-phenyl)-benzamide] | > 50 | 37.7 |
| COc1ccc(N(Cc2ccccc2-c2ccccc2)C(=O)c2cccc3c2OCO3)cn1 [Example 109, Benzo[1,3]dioxole-4-carboxylic acid biphenyl-2-ylmethyl-(6-methoxy-pyridin-3-yl)-amide] | > 50 | 11.8 |
| CCOc1ccccc1C(=O)N(Cc1ccccc1-c1ccccc1)c1ccccn1 [Example 110, N-Biphenyl-2-ylmethyl-2-ethoxy-N-pyridin-2-yl-benzamide] | > 50 | 14 |
| O=C(c1ccccc1Br)N(Cc1ccccc1-c1ccccc1)c1ccccn1 [Example 111, N-Biphenyl-2-ylmethyl-2-bromo-N-pyridin-2-yl-benzamide] | > 50 | 18.7 |
| O=C(c1ccccc1[N+](=O)[O-])N(Cc1ccccc1-c1ccccc1)c1ccccn1 [Example 112, N-Biphenyl-2-ylmethyl-2-nitro-N-pyridin-2-yl-benzamide] | > 50 | 23.7 |
| O=C(c1ccccc1OCc1ccccc1)N(Cc1ccccc1-c1ccccc1)c1ccccn1 [Example 113, 2-Benzyloxy-N-biphenyl-2-ylmethyl-N-pyridin-2-yl-benzamide] | > 50 | 25.1 |
| O=C(c1ccccc1Br)N(Cc1ccccc1-c1ccccc1)c1cccnc1 [Example 114, N-Biphenyl-2-ylmethyl-2-bromo-N-pyridin-3-yl-benzamide] | > 50 | 26.7 |
| O=C(c1sc2ccccc2c1Cl)N(Cc1ccccc1-c1ccccc1)c1cccnc1 [Example 115, 3-Chloro-benzo[b]thiophene-2-carboxylic acid biphenyl-2-ylmethyl-pyridin-3-yl-amide] | > 50 | 23.5 |
| O=C(c1cc2ccccc2s1)N(Cc1ccccc1-c1ccccc1)c1cccnc1 [Example 116, Benzo[b]thiophene-2-carboxylic acid biphenyl-2-ylmethyl-pyridin-3-yl-amide] | > 50 | 9.3 |
| O=C(c1ccccc1[N+](=O)[O-])N(Cc1ccccc1-c1ccccc1)c1cccnc1 [Example 117, N-Biphenyl-2-ylmethyl-2-nitro-N-pyridin-3-yl-benzamide] | > 50 | 18 |
| CCOc1ccccc1C(=O)N(Cc1ccccc1-c1ccccc1)c1ccncc1 [Example 118, N-Biphenyl-2-ylmethyl-2-ethoxy-N-pyridin-4-yl-benzamide] | > 50 | 5.8 |
| COc1ccccc1C(=O)N(Cc1ccccc1-c1ccccc1)c1ccncc1 [Example 119, N-Biphenyl-2-ylmethyl-2-methoxy-N-pyridin-4-yl-benzamide] | > 50 | 4.8 |
| O=C(c1cccc2c1OCO2)N(Cc1ccccc1-c1ccccc1)c1ccncc1 [Example 120, Benzo[1,3]dioxole-4-carboxylic acid biphenyl-2-ylmethyl-pyridin-4-yl-amide] | > 50 | 18.1 |
| O=C(c1ccccc1Br)N(Cc1ccccc1-c1ccccc1)c1ccncc1 [Example 121, N-Biphenyl-2-ylmethyl-2-bromo-N-pyridin-4-yl-benzamide] | > 50 | 3.8 |
| O=C(c1ccccc1[N+](=O)[O-])N(Cc1ccccc1-c1ccccc1)c1ccncc1 [Example 122, N-Biphenyl-2-ylmethyl-2-nitro-N-pyridin-4-yl-benzamide] | > 50 | 22.4 |

| SMILES | IC50 [1] [µM] | IC50 [2] [µM] |
| --- | --- | --- |
| O=C(c1ccccc1OCc1ccccc1)N(Cc1ccccc1-c1ccccc1)c1ccncc1 [Example 123, 2-Benzyloxy-N-biphenyl-2-ylmethyl-N-pyridin-4-yl-benzamide] | > 50 | 2.3 |
| CCOc1ccc(C(=O)N(Cc2ccccc2-c2ccccc2)c2ccncc2)cc1 [Example 124, N-Biphenyl-2-ylmethyl-4-ethoxy-N-pyridin-4-yl-benzamide] | > 50 | 3.3 |
| O=C(c1cc2ccccc2s1)N(Cc1cccnc1)Cc1ccccc1-c1ccccc1 [Example 125, Benzo[b]thiophene-2-carboxylic acid biphenyl-2-ylmethyl-pyridin-3-ylmethyl-amide] | > 50 | 23.9 |
| COc1ccc(N(Cc2ccccc2-c2ccccc2)C(=O)c2ccccc2SC)cc1 [Example 126, N-Biphenyl-2-ylmethyl-N-(4-methoxy-phenyl)-2-methylsulfanyl-benzamide] | > 50 | 16 |
| COc1ccc(N(Cc2ccccc2-c2ccccc2)C(=O)c2ccccc2SC(C)C)cc1 [Example 127, N-Biphenyl-2-ylmethyl-2-isopropylsulfanyl-N-(4-methoxy-phenyl)-benzamide] | > 50 | 49.4 |
| CCCSc1ccccc1C(=O)N(Cc1ccccc1-c1ccccc1)c1cccc(OC)c1 [Example 128, N-Biphenyl-2-ylmethyl-N-(3-methoxy-phenyl)-2-propylsulfanyl-benzamide] | > 50 | 46.8 |
| COc1cccc(N(Cc2ccccc2-c2ccccc2)C(=O)c2ccccc2SC)c1 [Example 129, N-Biphenyl-2-ylmethyl-N-(3-methoxy-phenyl)-2-methylsulfanyl-benzamide] | > 50 | 6.5 |
| COc1cccc(N(Cc2ccccc2-c2ccccc2)C(=O)c2ccccc2SC(C)C)c1 [Example 130, N-Biphenyl-2-ylmethyl-2-isopropylsulfanyl-N-(3-methoxy-phenyl)-benzamide] | > 50 | 31.4 |
| COc1cccc(N(Cc2ccccc2-c2ccccc2)C(=O)c2ccccc2SCc2ccccc2)c1 [Example 131, 2-Benzylsulfanyl-N-biphenyl-2-ylmethyl-N-(3-methoxy-phenyl)-benzamide] | > 50 | 40.1 |
| O=C(c1ccccc1SCc1ccccc1)N(Cc1ccccc1-c1ccccc1)c1ccc(Cl)cc1 [Example 132, 2-Benzylsulfanyl-N-biphenyl-2-ylmethyl-N-(4-chloro-phenyl)-benzamide] | > 50 | > 74 |
| CCCSc1ccccc1C(=O)N(Cc1ccccc1-c1ccccc1)c1ccc(OC)c(OC)c1 [Example 133, N-Biphenyl-2-ylmethyl-N-(3,4-dimethoxy-phenyl)-2-propylsulfanyl-benzamide] | > 50 | 16.7 |
| COc1ccc(N(Cc2ccccc2-c2ccccc2)C(=O)c2ccccc2SC)cc1OC [Example 134, N-Biphenyl-2-ylmethyl-N-(3,4-dimethoxy-phenyl)-2-methylsulfanyl-benzamide] | > 50 | 12.9 |
| COc1ccc(N(Cc2ccccc2-c2ccccc2)C(=O)c2ccccc2SC(C)C)cc1OC [Example 135, N-Biphenyl-2-ylmethyl-N-(3,4-dimethoxy-phenyl)-2-isopropylsulfanyl-benzamide] | > 50 | 21.9 |
| COc1ccc(N(Cc2ccccc2-c2ccccc2)C(=O)c2cccc(Sc3ccccc3)c2)cc1OC [Example 136, N-Biphenyl-2-ylmethyl-N-(3,4-dimethoxy-phenyl)-3-phenylsulfanyl-benzamide] | > 50 | 33.8 |
| COc1ccc(N(Cc2ccccc2-c2ccccc2)C(=O)c2ccccc2SCc2ccccc2)cc1OC [Example 137, 2-Benzylsulfanyl-N-biphenyl-2-ylmethyl-N-(3,4-dimethoxy-phenyl)-benzamide] | > 50 | 9.8 |
| CCC[S+]([O-])c1ccccc1C(=O)N(Cc1ccccc1-c1ccccc1)c1ccc(OC)cc1 (stereo not drawn) [Example 138, N-Biphenyl-2-ylmethyl-N-(4-methoxy-phenyl)-2-(propane-1-sulfinyl)-benzamide] | > 15 | 7 |
